Measurements from PubChem BioAssay (NCI).
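Dose response: 5 concentrations. Exposure: 48 h. Format: 96-well plates. Endpoint: linear interpolation; highest concentration if not reached. The concentration for 50% growth inhibition is given as GI50. TGI: concentration producing complete growth inhibition.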

Key:
Assay in all cases: inhibition of tumour cell growth, NCI panel, 48 h
[1] = system: MDA-MB-231 breast
[2] = system: NCI-H226 lung
[3] = system: T-47D breast
[4] = system: NCI-H460 lung
[5] = system: M14 melanoma
[6] = system: HCT-15 colon
[7] = system: A498 renal
[8] = system: EKVX NSCLC
[9] = system: NCI/ADR-RES ovarian
[10] = system: SR leukemia

Row | SMILES | TGI [1] [µM] | TGI [2] [µM] | TGI [3] [µM] | TGI [4] [µM] | TGI [5] [µM] | TGI [6] [µM] | TGI [7] [µM] | TGI [8] [µM] | TGI [9] [µM] | TGI [10] [µM] | GI50 [2] [nM] | GI50 [1] [nM] | GI50 [7] [nM] | GI50 [9] [nM]
1 | CC1(C)C2CC(=O)C1(C)C(O)C2Br (centres undefined) | > 100 | > 100 | > 100 | > 100 | > 100 | > 100 | > 100 | > 100 | > 100 |  |  |  |  | 
2 | COc1c(O)c2c3c(c(C)cc(O)c3c1O)C(=O)C(O)(C(C)(C)C(C)=O)C2=O (centres undefined) |  | 34.6 |  | > 100 | > 100 | > 100 |  |  |  |  |  |  |  | 
3 | Nc1nc(N)c(N=O)c(Nc2ccc(Br)cc2)n1 |  | 92.7 |  | > 100 | 52.8 | > 100 | 35.2 | > 100 |  | > 100 |  |  |  | 
4 | Nc1nc(Cl)cc(NCC2(CO)CCC(CCc3ccccc3)C2)n1 (centres undefined) | 33.6 | 36.1 | 30.6 | 27.3 | 27.8 | 34 | 26.8 | 25.9 | 51.2 |  |  |  |  | 
5 | COc1ccc(-c2c3c([nH]c(=S)c2C#N)CC(C)(C)CC3=O)cc1 | > 100 | > 100 | > 100 | > 100 | > 100 | > 100 | > 100 | > 100 |  | > 100 |  |  |  | 
6 | O=C(Cc1ccccc1)NN1C(=O)/C(=C\c2ccccc2)SC1=Nc1ccccc1 | > 100 | > 100 | > 100 | > 100 | > 100 | > 100 | > 100 | > 100 | > 100 |  |  |  |  | 
7 | CCOC(=O)C1(C(=O)OCC)COS(=O)OC1 | 35.3 | 40.6 | 50.8 | > 100 | > 100 | 54.6 | > 100 |  | > 100 | > 100 |  |  |  | 
8 | O=C(Nc1ccccc1F)c1cc2ccc(O)cc2oc1=Nc1ccccc1F |  |  | 4.63 | 6.18 | 5.57 | 6.28 |  | 6.01 | 5.93 | 5.37 |  |  |  | 
9 | CC1CN=C(N(C(=O)Nc2ccc(F)c(Cl)c2)c2ccccc2)S1 (centres undefined) | 38.9 |  | > 100 | 84.1 | 75.5 | 75.3 | 62.1 | 62.4 | 43 |  |  |  |  | 
10 | O=c1ccn(C2OC(CO)C(P(=O)(O)O)C2O)c(=O)[nH]1 (centres undefined) | > 100 | > 100 | > 100 | > 100 | > 100 | > 100 | > 100 | > 100 |  | > 100 |  |  |  | 
11 | ClC(Cl)=C1C(=C(Cl)Cl)C(Cl)(Cl)C1(Cl)Cl | 4.81 | 1.89 | 23.6 | 16.6 | 4.17 | 3.56 | 26 | 16.6 |  | 3.46 | 422 |  |  | 
12 | N=C(N)c1ccc(-c2ccc(-c3cccs3)s2)cc1 | 3.28 | 33 |  |  |  |  | 3.04 |  | 4.49 |  | 4030 | 1640 | 462 | 1940
13 | C[C@]12CC[C@@H]3c4ccc(O)cc4CC[C@H]3[C@@H]1C/C(=C\c1ccncc1)[C@@H]2O | 41.2 | 42.1 | 13.8 | 68.2 | > 100 | 33.3 | 17.7 | > 100 | 33.5 |  |  |  |  | 
14 | CC(C(=O)N1C(=O)N(C(=O)C(C)C(O)c2ccccc2)C2CCCCC21)C(O)c1ccccc1 (centres undefined) |  |  |  | > 100 | > 100 | > 100 |  | > 100 |  | > 100 |  |  |  | 
15 | CC1=NN(C(=O)CC(=O)Nc2ccccc2F)C(=O)C1N=Nc1ccccc1[N+](=O)[O-] (centres undefined) |  | > 100 |  |  | > 100 | > 100 |  | > 100 |  |  |  |  |  | 
16 | O=C(CN(c1ccccc1)c1ccccc1)N1c2ccccc2C2C=CC=CC21 (centres undefined) |  | 44.6 |  | 36.1 | > 57.3 | 32.1 | 77.4 | > 59.4 |  | > 21.4 |  |  |  | 
17 | CCC1=CC2CN3Cn4c(c(COCc5c6n(c7ccccc57)CN5CC7C=C(CC)C5C6(C(=O)OC)C7)c5ccccc54)C(C(=O)OC)(C2)C13 |  | > 100 |  | > 100 | > 100 | > 100 | > 100 | > 100 |  | > 100 |  |  |  | 
18 | O=C(CNc1c(Cl)cccc1Cl)NC1C=Cc2ccc(S(=O)(=O)Nc3c(Cl)cccc3Cl)cc2C1=O (centres undefined) | > 100 | > 100 |  | > 100 | > 100 | > 100 |  | > 100 | > 100 | > 100 |  |  |  | 
19 | Clc1ccc(CSCCc2ccncc2)cc1Cl | 29.1 | 49.2 | > 100 | > 100 | 32.5 | 56.7 | 26 | 57 | 50.5 |  |  |  |  | 
20 | CN(Cc1ccccc1)c1cc(=O)n(C)c(=O)[nH]1 | > 100 | > 100 | > 100 | > 100 | > 100 | > 100 | > 100 |  | > 100 |  |  |  |  | 
21 | CC(C)=CCC/C(C)=C/COC(C)(C)C1=CCC(C)CC1 (centres undefined) (tested in a mixture with another compound) |  |  |  | > 100 | > 100 | > 100 | > 100 | > 100 |  | 36.1 |  |  |  | 
22 | O=[N+]([O-])c1ccc(/C=C/c2cc(-c3ccccc3)nc3ccc4ccccc4c23)cc1 | > 100 | > 100 |  | > 100 | > 100 | > 100 | > 100 | > 100 | > 100 | > 100 |  |  |  | 
23 | S=C(/N=c1\sc(Nc2ccc(Cl)cc2)nc2sc3c(c12)CCN(N1CCc2c(sc4nc(Nc5ccc(Cl)cc5)s/c(=N\C(=S)Nc5ccc(Cl)cc5)c24)C1)C3)Nc1ccc(Cl)cc1 | 35.1 | > 100 |  | > 100 | > 100 | > 100 |  | > 100 | > 100 |  |  |  |  | 
24 | CC(=O)OCC1OC(n2cc(I)c(=O)[nH]c2=O)C(OC(C)=O)C(OC(C)=O)C1OC(C)=O (centres undefined) |  | > 100 |  | > 100 | > 100 | > 100 | > 100 | > 100 |  | > 100 |  |  |  | 
